What was measured:
[1] = Heat stress stability at 70° C. for three days, HPLC with ELSD detection; assay type: physicochemical
Method: Samples of amorphous squalamine dilactate and squalamine dilactate recrystallized from ethanol as described in Example 5 were placed in scintillation vials and heated in an oven at 70° C. for three days. A portion of each heat stressed sample was then analyzed by HPLC with ELSD detection and the results compared with the HPLC analysis of unstressed material.

tails of CD-1®BR mice = experiment: Local irritancy of 5-day repeated intravenous injections of squalamine salt forms in mice; assay type: in vivo
Text: A Study of Local Irritancy of 5-Day Repeated Intravenous Injections of Different Salt Forms (Ditrifluoroacetate, Dilactate, Digluconate, Diacetate) of MSI-1256 (Squalamine) in Mice
Objective: To determine the local irritancy of 5-day repeated daily intravenous doses of squalamine salt forms in tails of CD-1®BR mice.
Material and Methods: (Animals): Forty-eight male CD-1®BR mice (Charles River Lab). Mean body weight at study initiation was 20.6 gm. (Housing Environment): Mice were housed as groups (maximum 10 mice/box) in plastic mouse boxes with hardwood chip bedding and wire lids. They had access to food (Purina Mouse Chow) and water in bottles ad lib. The boxes were housed in isolator racks that were supplied with one-pass through filtered room air. The room in which the animals were housed was on a 12-hour on/12-hour off light cycle and had controlled temperature (range: 67-76° F.) and humidity (range: 40-70% relative humidity).
Solution prep: A 0.36 mg/mL solution of squalamine ditrifluoroacetate salt (equivalent to 0.25 mg/mL squalamine ditrifluroacetate active moiety) was prepared in D5W. A 0.31 mg/mL solution of squalamine diacetate salt (equivalent to 0.25 mg/mL squalamine diacetate active moiety) was prepared in D5W. A 0.33 mg/mL solution of squalamine dilactate salt (equivalent to 0.25 mg/mL squalamine dilactate active moiety) was prepared in D5W. A 0.45 mg/mL solution of squalamine digluconate salt (equivalent to 0.25 mg/mL squalamine digluconate active moiety) was prepared in D5W. A 1.0 mg/mL solution of magainin-2-amide (positive control) was prepared in D5W. Protocol: Mice were randomly assigned to six groups (8 mice/group) and received daily intravenous (i.v.) injections of solutions of D5W or squalamine salts in the tail vein for five days (study days 0, 1, 2, 3, and 4). […] One group of eight mice received test article magainin-2-amide (10 mg/kg/day; 10 mL/kg/day of a 1 mg/mL solution), which was previously determined to be local vein irritant, as a positive control. Mice were not injected with test article if severity of bruising or swelling (edema) warranted the omission of the injection. Survival was monitored and clinical signs were observed daily for five days of administration of squalamine salts and four days after the last dose (Study Day 8). Clinical signs of irritancy, edema, and bruising were made on days 1, 2, 3, and 4 approximately 24-hours after each injection and immediately prior to that day's injection. The pHs of the solutions of all test articles except magainin-2-amide were checked on Study Day 3. (The same solutions were used throughout the study so a similar pH on all study days may be assumed).

[2] = Accelerated stability study (temperature-based, four weeks) of four salt forms, reversed-phase HPLC of o-phthaldialdehyde derivatized samples; assay type: physicochemical
Method: An accelerated stability study (temperature-based) lasting four weeks was performed on squalamine in four different salt forms. The four salt forms were: dihydrochloride, diacetate, dilactate and D-digluconate. The samples were subjected to temperatures of 40° C., 60° C. and 80° C. The following table summarizes the results of % purity of main peak, squalamine, based on total integrated area. The analysis was performed using reversed-phase HPLC of o-phthaldialdehyde derivatized samples.

[3] = Heat Stressed, 70° C. for three days

Row | Compound | necrotic mouse tail (mice affected/group) (tails of CD-1®BR mice; mouse, in vivo) | % purity of main peak, squalamine, based on total integrated area ([2]; 4w 40° C.) [%] | % purity of main peak, squalamine, based on total integrated area ([2]; 4w 60° C.) [%] | % purity of main peak, squalamine, based on total integrated area ([2]; 4w 80° C.) [%] | % purity of main peak, squalamine, based on total integrated area ([2]; T = 0) [%] | other results
1 | CC(C)[C@@H](CC[C@@H](C)[C@H]1CC[C@H]2[C@@H]3[C@H](O)C[C@H]4C[C@@H](NCCCNCCCCN)CC[C@]4(C)[C@H]3CC[C@]12C)OS(=O)(=O)O.C[C@H](O)C(=O)O.C[C@H](O)C(=O)O [Crystallized Squalamine] | – | – | – | – | – | change in the percentage of the lactylamide impurity when heat stressed ([1]; 70° C. for three days vs unstressed): no significant increase; 24 S Isomer [1, 3]: 0.714%; Lacrylamide [1, 3]: 0.087%; Squalamine [1, 3]: 99.168%; 24 S Isomer ([1]; Unstressed): 0.715%; Lacrylamide ([1]; Unstressed): 0.070%; Squalamine ([1]; Unstressed): 99.187%
2 | squalamine diacetate | 1/8 | 87.3 | 81.5 | 62.9 | 94.4 | –
3 | squalamine digluconate | – | 72.6 | 60.7 | 4.9 | 87.8 | tolerance of treatment (swelling, bruising, irritation of tails) (tails of CD-1®BR mice; 2.5 mg/kg/day i.v. tail vein for five days, 0.25 mg/mL solutions in D5W, compared with squalamine diacetate and ditrifluoroacetate): tolerated slightly better
4 | squalamine dilactate | – | 80.9 | 80.6 | 70.9 | 91.8 | stability under increasingly severe conditions ([2]; four weeks at 40-80° C., compared to the diacetate and digluconate salts): surprisingly stable
5 | squalamine ditrifluoroacetate | 1/8 | – | – | – | – | mouse tail fell off (mice affected/group) (tails of CD-1®BR mice; mouse, in vivo): 1/8

From patent US7981876B2, “Polymorphic and amorphous salt forms of squalamine dilactate” (priority 2005, dated 2011)
